In PMC3479967 (Evidence-based Complementary and Alternative Medicine : eCAM, 2012) one finds IC50 data, which are given here for three compounds.

pIC50: −log10 of the molar value.

The target of the test is T1, UGT2B7 (Homo sapiens, UniProt P16662).
T1 sequence (P16662 24-529): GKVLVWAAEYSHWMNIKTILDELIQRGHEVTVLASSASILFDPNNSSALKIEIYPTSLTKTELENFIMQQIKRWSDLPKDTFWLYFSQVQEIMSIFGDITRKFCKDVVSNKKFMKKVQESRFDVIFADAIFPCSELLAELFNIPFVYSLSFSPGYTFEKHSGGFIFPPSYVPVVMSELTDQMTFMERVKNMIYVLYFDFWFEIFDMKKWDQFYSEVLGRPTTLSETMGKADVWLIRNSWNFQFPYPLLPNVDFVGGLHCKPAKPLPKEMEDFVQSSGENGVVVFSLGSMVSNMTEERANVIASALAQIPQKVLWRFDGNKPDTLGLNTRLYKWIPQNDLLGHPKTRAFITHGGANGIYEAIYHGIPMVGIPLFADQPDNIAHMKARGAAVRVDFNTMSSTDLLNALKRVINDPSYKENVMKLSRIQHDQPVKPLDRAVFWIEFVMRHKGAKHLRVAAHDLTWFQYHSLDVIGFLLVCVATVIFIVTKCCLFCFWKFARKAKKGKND
The test is described as follows: Inhibition of recombinant UGT2B7 activity (4-MU glucuronidation). As for the experimental part: A panel of recombinant human UGT supersomes (UGT1A1, UGT1A3, UGT1A4, UGT1A6, UGT1A7, UGT1A8, UGT1A9, UGT1A10, UGT2B4, UGT2B7, UGT2B15, and UGT2B17) expressed in baculovirus-infected insect cells were purchased from BD Gentest Corp. (Woburn, MA, USA).
4-MU, a nonselective substrate of UGTs, was used as probe substrate for all UGTs except UGT1A4. Incubations with each individual enzyme were conducted using conditions previously described. There was a 5 min preincubation step at 37°C before the reaction was started by addition of UDPGA. The incubation mixtures were then centrifuged at 20,500 ×g for 15 min to obtain the supernatant. Aliquots (20 μL) were then analyzed by HPLC. The HPLC system (SHIMADZU, Kyoto, Japan) consisted of an SCL-10A system controller, two LC-10AT pumps, a SIL-10A auto injector, and a SPD-10AVP UV detector. Chromatographic separation was achieved using a Kromasil ODS column (4.6 × 150 mm I.D., 5 μm particle size) at a flow rate of 1 mL/min and UV detection at 316 nm. The mobile phase consisted of 10 mM KH2PO4, pH 2.7 (A) and acetonitrile (B). The following gradient was applied at a flow rate of 1 mL/min: 0–4 min 80% A and 20% B, 4.1–8 min 50% A and 50% B, 8.1–12 min, 30% A and 70% B. All experiments were performed in two independent experiments in duplicate.
A typical incubation mixture contained recombinant human UGTs, 5 mM MgCl2, 5 mM UDPGA, 50 μg/mg protein alamethicin, 50 mM Tris-HCl buffer (pH 7.4), and various probe substrates of UGTs in the absence or presence of different concentrations of inhibitors. […] The final concentration of DMSO in the incubation system was 1% (v/v). […] Known UGT inhibitors were used as positive controls: diclofenac for UGT1A1, UGT1A6, UGT1A7, and UGT1A9; androsterone for UGT1A3, UGT2B7, and UGT2B15, phenylbutazone for UGT1A8 and UGT1A10, and hecogenin for UGT1A4, respectively. There is no positive control reported available for UGT2B4 and UGT2B17. The negative controls are the incubation without UDPGA. […] The final concentration of DMSO in the incubation system was 1% (v/v). […] There was a 5 min preincubation step at 37°C before the reaction was started by the addition of UDPGA. Incubation times were 120 min for UGT1A1, UGT1A10, UGT2B4, UGT2B15, and UGT2B17, 75 min for UGT1A3, and 30 min for UGT1A4, UGT1A6, UGT1A7, UGT1A8, and UGT1A9. The reactions were quenched by adding 100 μL acetonitrile and internal standard. The incubation mixtures were then centrifuged at 20,500 ×g for 15 min to obtain the supernatant. An aliquot of the supernatant was used for HPLC analysis as described above. All experiments were performed in two independent experiments in duplicate.
Inhibition data from experiments were graphically represented by Dixon plots. K i values were calculated by nonlinear regression using the equations for competitive inhibition (1), noncompetitive inhibition (2), or mixed inhibition (3), [22] […] The type of inhibition was determined from the enzyme inhibition models. Goodness of fit to kinetic and inhibition models was assessed from the F statistic, r ^2 values, parameter standard error estimates, and 95% confidence intervals. […]
Broadly, the pIC50 is the negative decadic logarithm of the IC50, by convention in mol/L. For `COc1ccc(-c2oc3c(CC=C(C)C)c(O[C@@H]4O[C@H](CO)[C@@H](O)[C@H](O)[C@H]4O)cc(O)c3c(=O)c2O[C@@H]2O[C@@H](C)[C@H](O)[C@@H](O)[C@H]2O)cc1` [Icariin], the pIC50 was less than 4.00.

With `COc1ccc(-c2oc3c(CC=C(C)C)c(O[C@@H]4O[C@H](CO)[C@@H](O)[C@H](O)[C@H]4O)cc(O)c3c(=O)c2O)cc1` [Icariside I], the pIC50 was less than 4.00.

As to `COc1ccc(-c2oc3c(CC=C(C)C)c(O)cc(O)c3c(=O)c2O)cc1` [Icaritin], the pIC50 is less than 4.00.
